# Test results as given in ChEMBL document CHEMBL4270488, “Antibacterial Compounds from Marine Bacteria, 2010-2015” (J Nat Prod, 2017).
# *1 amine or outer side, *2 acyl side, *3 side chain or, on linkers, in order; H or OH if unused. Where a SMILES comes first, the peptide text is derived from it. Bridges are numbered along the chain shown (N, C = ends). Roman numbers before positions name the chains, in order. [ ]: non-standard residue; d: D form. Actinocin(1to9) = Cc1c2oc3c(C)ccc(C(=O)[*:2])c3nc-2c(C(=O)[*:1])c(N)c1=O; Pro(4-oxo) = O=C1CN[C@H](C(=O)O)C1; NMeV = CN[C@H](C(=O)O)C(C)C; Sar = CNCC(=O)O
# Columns and labels:
# [1] = Inhibition of Staphylococcus aureus RNA polymerase
# [2] = Inhibition of Escherichia coli RNA polymerase
# [3] = system: Yersinia pseudotuberculosis; assay: Inhibition of type 3 secretion system protein secretion in Yersinia pseudotuberculosis at 30 ug/ml incubated for 2 hrs by SDS-PAGE and densitometric analysis
# Bacillus subtilis [4] = assay: Antibacterial activity against Bacillus subtilis 769 measured after overnight incubation by microdilution method; format: functional
# Staphylococcus aureus [5] = assay: Antibacterial activity against methicillin-resistant Staphylococcus aureus ATCC 43300 measured after overnight incubation by microdilution method; format: functional
# [6] = system: Staphylococcus haemolyticus; assay: Antibacterial activity against Staphylococcus haemolyticus UST950701-004 measured after overnight incubation by microdilution method; format: functional
# Staphylococcus aureus [7] = assay: Antibacterial activity against Staphylococcus aureus UST950701-005 measured after overnight incubation by microdilution method; format: functional
# Staphylococcus aureus [8] = assay: Antibacterial activity against methicillin-resistant Staphylococcus aureus; format: functional
# Escherichia coli [9] = assay: Antibacterial activity against Escherichia coli; format: functional
# [10] = Antibacterial activity Bacillus pumilus against by broth dilution assay; format: functional
# Pseudomonas aeruginosa [11] = assay: Antibacterial activity against Pseudomonas aeruginosa by broth dilution assay; format: functional
# Escherichia coli [12] = assay: Antibacterial activity against Escherichia coli D21f2tolC by broth microdilution assay; format: functional
# Enterococcus faecalis = assay: Antibacterial activity against Enterococcus faecalis ATCC 19433 by broth microdilution assay; format: functional
# Haemophilus influenzae = assay: Antibacterial activity against Haemophilus influenzae ATCC 49247 by broth microdilution assay; format: functional
# [13] = system: Staphylococcus epidermidis; assay: Antibacterial activity against Staphylococcus epidermidis DSM 20044 incubated for 5 hrs by resazurin dye reduction based assay; format: functional, organism-based; details: DSM 20044, 5 h
# Bacillus subtilis [14] = assay: Antibacterial activity against Bacillus subtilis DSM 347 incubated for 5 hrs by resazurin dye reduction based assay; format: functional, organism-based; details: DSM 347, 5 h
# Pseudomonas aeruginosa [15] = assay: Antibacterial activity against Pseudomonas aeruginosa incubated for 24 hrs by standard broth dilution assay; format: functional
# Escherichia coli [16] = assay: Antibacterial activity against Escherichia coli incubated for 24 hrs by standard broth dilution assay; format: functional
# Bacillus subtilis [17] = assay: Antibacterial activity against Bacillus subtilis incubated for 24 hrs by standard broth dilution assay; format: functional
# Staphylococcus aureus [18] = assay: Antibacterial activity against Staphylococcus aureus incubated for 24 hrs by standard broth dilution assay; format: functional
# [19] = system: Mycobacterium tuberculosis; assay: Antibacterial activity against Mycobacterium tuberculosis H37Rv ATCC 27294 incubated for 10 days by GFP based fluorescence assay; format: functional; details: H37Rv ATCC 27294, 240 h
smiles,measurement,setting,value
CC[C@H](C)[C@H]1NC(=O)[C@@H](NC(=O)[C@H](C)[C@H](O)C(C)C)[C@@H](C)OC(=O)[C@H]2NC(=O)[C@@H](C(C)C)NC(=O)[C@@H](Cc3ccccc3)N(C)C(=O)[C@@H](NC1=O)c1ccc(cc1)O[C@H](C)[C@@](O)(CCl)/C=C\C(=O)NCC(=O)O2,IC50,[1],200 to 4000 nM
same,IC50,[2],200 to 2000 nM
C/C=C(\C)[C@H](O)[C@H](C)/C=C(C)/C=C/C/C(C)=C/Cc1nc(OC)c(OC)c(O)c1C,inhibition,[3],65%
COc1ccc2oc3c4c(c(O)c(O)c3c(=O)c2c1O)CCc1cc2c(c(O)c1-4)C(=O)N1[C@@](C)(C2)OC(=O)[C@]1(C)CO,MIC,Bacillus subtilis [4],≤ 1 µg/mL
same,MIC,Staphylococcus aureus [5],≤ 1 µg/mL
same,MIC,[6],≤ 1 µg/mL
same,MIC,Staphylococcus aureus [7],≤ 1 µg/mL
C/C=C(\C)[C@H](C)[C@H](C)/C=C(C)/C=C/C/C(C)=C/Cc1cc(O)cc(OC)n1,inhibition,[3],45%
C/C(=C\C(=O)OCCCCCCCC(=O)Nc1c2sscc-2[nH]c1=O)C[C@@H]1OC[C@H](C[C@@H]2O[C@H]2[C@@H](C)[C@H](C)O)[C@@H](O)[C@H]1O,MIC,Staphylococcus aureus [8],≤ 0.03 µg/mL
same,MIC,Escherichia coli [9],0.5 µg/mL
CCn1cc(C(=O)O)c(=O)c2ccc(C)nc21 [NALIDIXIC ACID],MIC,[10],1250 to 1500 µg/mL
same,MIC,Pseudomonas aeruginosa [11],1250 to 1500 µg/mL
CC[C@H](C)[C@H]1NC(=O)[C@@H](NC(=O)[C@H](C)[C@H](O)C(C)C)[C@@H](C)OC(=O)[C@H]2NC(=O)[C@@H](C(C)C)NC(=O)[C@@H](Cc3ccccc3)N(C)C(=O)[C@@H](NC1=O)c1ccc(cc1)O[C@H](C)[C@@](O)(CO)/C=C\C(=O)NCC(=O)O2,MIC,Escherichia coli [12],0.2 µg/mL
same,MIC,Enterococcus faecalis,12 µg/mL
same,IC50,[1],200 to 4000 nM
same,IC50,[2],200 to 2000 nM
same,MIC,Haemophilus influenzae,12 µg/mL
CCC(C)CCC[C@H](C(=O)OC)[C@@H](O)c1cccc2nc3c(C(=O)OC)cccc3nc12 (stereo not given in full),IC50,[13],3.6 µg/mL
same,IC50,Bacillus subtilis [14],3.6 µg/mL
CCCCCCCCCCCC(=O)N(CCO)CCO,MIC,Pseudomonas aeruginosa [15],0.02 to 0.13 µg/mL
same,MIC,Escherichia coli [16],0.02 to 0.13 µg/mL
same,MIC,Bacillus subtilis [17],0.02 to 0.13 µg/mL
same,MIC,Staphylococcus aureus [18],0.02 to 0.13 µg/mL
"Cc1c2oc3c(C)ccc(C(=O)N[C@@H]4C(=O)N[C@H](C(C)C)C(=O)N5CCC[C@H]5C(=O)N(C)CC(=O)N(C)[C@@H](C(C)C)C(=O)O[C@@H]4C)c3nc-2c(C(=O)N[C@@H]2C(=O)N[C@H](C(C)C)C(=O)N3CC(=O)C[C@H]3C(=O)N(C)CC(=O)N(C)[C@@H](C(C)C)C(=O)O[C@@H]2C)c(N)c1=O (I: T[dV][Pro(4-oxo)][Sar][NMeV] / II: T[dV]P[Sar][NMeV]; ester I:1-I:C, II:1-II:C; linker I:N-II:N via Actinocin(1to9))",MIC,[19],1 to 8 µg/mL
C[C@@H]1CCC/C=C/[C@@H]2O[C@@H](C/C=C\C=C\[C@H](O[C@@H]3O[C@H](CO)[C@@H](O)[C@H](O)[C@H]3O)C/C=C/C=C\C(=O)O1)C[C@@H](O)[C@H]2O,MIC,Pseudomonas aeruginosa [15],0.02 to 0.13 µg/mL
same,MIC,Escherichia coli [16],0.02 to 0.13 µg/mL
same,MIC,Bacillus subtilis [17],0.02 to 0.13 µg/mL
same,MIC,Staphylococcus aureus [18],0.02 to 0.13 µg/mL
CN(C)[C@@H]1C(O)=C(C(N)=O)C(=O)[C@@]2(O)C(O)=C3C(=O)c4c(O)cccc4[C@@](C)(O)[C@H]3C[C@@H]12 [TETRACYCLINE],MIC,[10],40 to 80 µg/mL
same,MIC,Pseudomonas aeruginosa [11],40 to 80 µg/mL
